Calls of active or inactive are those of the source.
How the values were obtained:
[1] = target: Cytochrome P450 2D6 (Homo sapiens, UniProt P10635); assay: qHTS Assay for Inhibitors and Substrates of Cytochrome P450 2D6. [Related pubchem assays: 410 ]; format: ADME; conditions: read-out: Potency
[2] = target: Glyceraldehyde-3-phosphate dehydrogenase (Homo sapiens, UniProt P04406)
[3] = target: Alkaline phosphatase, placental type (Homo sapiens, UniProt P05187); assay: human placental alkaline phosphatase inhibition – biochemical, luminescence, confirmation (AID 1512); format: functional
[4] = target: T1, Alkaline phosphatase, tissue-nonspecific isozyme (Homo sapiens, UniProt P05186); assay: potency against alkaline phosphatase TNAP – biochemical, luminescent, dose response, SAR follow-up (AID 1056)
T1 sequence (P05186 whole entry): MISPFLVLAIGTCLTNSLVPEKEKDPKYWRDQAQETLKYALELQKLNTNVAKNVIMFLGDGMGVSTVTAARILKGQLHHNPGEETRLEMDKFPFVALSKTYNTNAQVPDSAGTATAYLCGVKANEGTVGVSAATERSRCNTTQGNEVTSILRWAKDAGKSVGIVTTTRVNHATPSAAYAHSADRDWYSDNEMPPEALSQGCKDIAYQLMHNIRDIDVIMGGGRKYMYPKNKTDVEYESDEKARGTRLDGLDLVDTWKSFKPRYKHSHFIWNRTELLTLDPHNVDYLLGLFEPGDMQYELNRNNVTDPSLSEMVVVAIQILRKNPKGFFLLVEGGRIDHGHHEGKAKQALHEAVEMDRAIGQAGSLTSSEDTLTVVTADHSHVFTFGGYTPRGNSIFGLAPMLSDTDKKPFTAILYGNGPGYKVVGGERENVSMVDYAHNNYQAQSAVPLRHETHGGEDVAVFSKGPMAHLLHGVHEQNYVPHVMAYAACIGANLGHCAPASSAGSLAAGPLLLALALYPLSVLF

[5] = target: Peroxisome proliferator-activated receptor gamma/Nuclear receptor coactivator 2 (Homo sapiens, UniProt P37231); format: functional;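 further: agonist potency for raising coactivator recruitment to the receptor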
[6] = target: Peroxisome proliferator-activated receptor gamma/Nuclear receptor coactivator 1 (Homo sapiens, UniProt P37231); format: functional;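 further: agonist potency as compounds enhance coactivator SRC-1 recruitment to PPARgamma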
[7] = target: Peroxisome proliferator-activated receptor gamma/Nuclear receptor coactivator 3 (Homo sapiens, UniProt P37231); format: functional;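 further: agonist potency for raising coactivator recruitment to the receptor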
[8] = target: T2, Voltage-gated N-type calcium channel alpha-1B subunit/Amyloid beta A4 precursor protein-binding family A member 1 (Homo sapiens, UniProt Q00975+Q02410); format: protein assay
[9] = target: T2, Voltage-gated N-type calcium channel alpha-1B subunit/Amyloid beta A4 precursor protein-binding family A member 1; format: protein assay; remark: listed apart in the source
[10] = target: DNA dC->dU-editing enzyme APOBEC-3G (Homo sapiens, UniProt Q9HC16); assay: Dose Response confirmation of small molecule APOBEC3G DNA Deaminase Inhibitors via a fluorescence-based single-stranded DNA deaminase assay. [Related pubchem assays (depositor defined):AID493012, AID493028]; format: functional
[11] = target: T3, Short transient receptor potential channel 4 (Mus musculus, UniProt Q9QUQ5); assay: block of DAMGO-driven TRPC4 calcium entry – cell-based, HEK293 TRPC4/mu-opioid, Fluo-4 calcium, dose response (AID 434942); format: functional;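 further: potency of inhibitors blocking the TRPC4 calcium response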
T3 sequence (Q9QUQ5 whole entry): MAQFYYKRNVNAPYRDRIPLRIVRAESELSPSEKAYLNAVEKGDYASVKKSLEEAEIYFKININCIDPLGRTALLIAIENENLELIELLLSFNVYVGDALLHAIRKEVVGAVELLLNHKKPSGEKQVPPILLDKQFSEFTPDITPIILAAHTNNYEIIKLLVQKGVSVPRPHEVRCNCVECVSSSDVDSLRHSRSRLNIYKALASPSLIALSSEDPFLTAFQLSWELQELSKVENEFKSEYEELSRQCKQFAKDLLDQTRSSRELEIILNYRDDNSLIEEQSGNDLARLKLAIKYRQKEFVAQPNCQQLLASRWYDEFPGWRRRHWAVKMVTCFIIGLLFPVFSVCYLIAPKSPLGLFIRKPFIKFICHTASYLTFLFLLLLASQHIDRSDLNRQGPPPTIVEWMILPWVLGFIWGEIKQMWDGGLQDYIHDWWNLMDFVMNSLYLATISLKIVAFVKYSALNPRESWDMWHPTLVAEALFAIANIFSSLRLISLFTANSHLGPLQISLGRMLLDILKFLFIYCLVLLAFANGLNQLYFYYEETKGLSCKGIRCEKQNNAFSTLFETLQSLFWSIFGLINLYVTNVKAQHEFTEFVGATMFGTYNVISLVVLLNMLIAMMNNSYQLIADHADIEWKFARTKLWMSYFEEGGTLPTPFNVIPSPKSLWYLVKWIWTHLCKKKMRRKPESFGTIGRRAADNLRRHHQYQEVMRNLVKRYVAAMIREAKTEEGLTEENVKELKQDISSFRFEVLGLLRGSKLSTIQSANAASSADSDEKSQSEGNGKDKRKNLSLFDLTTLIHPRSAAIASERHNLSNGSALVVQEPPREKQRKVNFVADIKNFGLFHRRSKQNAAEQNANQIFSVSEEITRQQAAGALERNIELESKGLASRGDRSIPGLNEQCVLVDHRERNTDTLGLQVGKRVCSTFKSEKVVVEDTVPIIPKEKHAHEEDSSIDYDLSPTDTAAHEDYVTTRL

[12] = target: T4, Estrogen receptor (Homo sapiens, UniProt P03372); assay: ERα coactivator recruitment enhancers – biochemical, TR-FRET, ERα LBD, dose response (AID 737)
T4 sequence (P03372 whole entry): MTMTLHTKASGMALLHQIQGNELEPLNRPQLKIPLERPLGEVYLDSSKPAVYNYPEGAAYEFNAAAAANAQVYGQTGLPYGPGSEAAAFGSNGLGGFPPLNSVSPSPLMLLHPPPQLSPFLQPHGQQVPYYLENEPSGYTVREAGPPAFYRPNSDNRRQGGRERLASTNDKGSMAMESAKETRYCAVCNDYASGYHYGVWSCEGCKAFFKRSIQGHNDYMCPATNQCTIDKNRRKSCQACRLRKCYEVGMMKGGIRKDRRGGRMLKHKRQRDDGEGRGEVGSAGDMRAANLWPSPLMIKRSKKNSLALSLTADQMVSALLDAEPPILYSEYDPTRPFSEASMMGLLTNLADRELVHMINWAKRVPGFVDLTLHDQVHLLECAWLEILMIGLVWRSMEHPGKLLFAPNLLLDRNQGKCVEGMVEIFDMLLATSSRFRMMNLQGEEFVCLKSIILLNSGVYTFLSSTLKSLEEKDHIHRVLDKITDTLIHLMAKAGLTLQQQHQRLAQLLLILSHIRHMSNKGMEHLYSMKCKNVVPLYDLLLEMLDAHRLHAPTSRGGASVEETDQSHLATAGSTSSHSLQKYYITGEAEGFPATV

[13] = target: Mu-type opioid receptor (Homo sapiens, UniProt P35372); assay: SAR Analysis of Antagonists of the MOR Receptor using an Image-Based Assay - Set 3. [Related pubchem assays (depositor defined):AID1777, AID1785, AID1786, AID1966, AID2133, AID2136, AID2284, AID2285, AID2420]; format: functional
[14] = target: Delta-type opioid receptor (Homo sapiens, UniProt P41143); assay: SAR Analysis of Antagonists of the DOR Receptor using an Image-Based Assay - Set 3. [Related pubchem assays (depositor defined):AID1777, AID1785]; format: functional;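 further: U2OS cells expressing DOR1 and beta-arrestin GFP stimulated with 100 nM SNC80; imaging of GFP-tagged beta-arrestin moving into spots after receptor activation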
[15] = target: T5, Kappa-type opioid receptor (Homo sapiens, UniProt P41145); assay: SAR analysis of small molecule antagonists of the kappa opioid receptor via a luminescent beta-arrestin assay - Set 3. [Related pubchem assays (depositor defined):AID1777, AID1778, AID1785, AID1786, AID1966, AID2133, AID2136, AID2285, AID2495]; format: functional
[16] = target: T5, Kappa-type opioid receptor; assay: SAR analysis of Antagonists of the Kappa Opioid Receptor (KOR) using an Image-Based Assay - Set 3. [Related pubchem assays (depositor defined):AID1777, AID1785]; format: functional
[17] = target: DNA dC->dU-editing enzyme APOBEC-3A (Homo sapiens, UniProt P31941); assay: A3A deaminase inhibition for selectivity – biochemical, dose response (AID 504722); format: functional
[18] = system: HeLa; assay: Cytotoxicity counterscreen assay for transcriptional activators of heat shock protein 70 (Hsp70). [Related pubchem assays: 1203, 1252 ]; format: functional; conditions: Homo sapiens;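 further: cells exposed to compound for 16 hours before readout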
[19] = target: Large T antigen (Simian virus 40, UniProt P03070); format: functional, Betapolyomavirus macacae;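 further: Confirmatory-stage PubChem screen for compounds that inhibit SV40 T antigen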
[20] = A Cell Based Secondary Assay To Explore Cytotoxicity of Compounds that Sensitize Mycobacterium Tuberculosis to Beta-Lactam Antibiotics.; format: functional
[21] = microbe, parasite or virus in culture; format: functional; conditions: Mycobacterium tuberculosis
[22] = Luminescence Cell-Based Dose Retest to Confirm Inhibitors of Cancer Stem Cells. [Related pubchem assays (depositor defined):AID2717, AID2721]; format: functional; conditions: Homo sapiens
[23] = target: Neurotensin receptor type 1 (Homo sapiens, UniProt P30989); format: functional;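 further: Image-based confirmatory dose-response assay measuring agonist activity at NTR1; NTR1-expressing U2OS osteosarcoma cells imaged for beta-arrestin GFP spot formation; agonist potency where compounds increase beta-arrestin recruitment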
[24] = viability loss in THP-1 monocytes – THP-1 cells, cytotoxicity control for Vif-APOBEC3G degradation inhibitor project, dose response (AID 1117359); format: functional; conditions: THP-1
[25] = target: Cytochrome P450 3A4 (Homo sapiens, UniProt P08684); conditions: Potency;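 further: confirmatory qHTS run detecting inhibitors and substrates of CYP3A4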
[26] = target: T6, Caspase-3 (Homo sapiens, UniProt P42574); assay: activators of human procaspase-3 D3A mutant – biochemical, absorbance, PC-3 D3A mutant, counter-screen for dual procaspase-3/7 activator project, dose response (AID 504328)
T6 sequence (P42574 whole entry): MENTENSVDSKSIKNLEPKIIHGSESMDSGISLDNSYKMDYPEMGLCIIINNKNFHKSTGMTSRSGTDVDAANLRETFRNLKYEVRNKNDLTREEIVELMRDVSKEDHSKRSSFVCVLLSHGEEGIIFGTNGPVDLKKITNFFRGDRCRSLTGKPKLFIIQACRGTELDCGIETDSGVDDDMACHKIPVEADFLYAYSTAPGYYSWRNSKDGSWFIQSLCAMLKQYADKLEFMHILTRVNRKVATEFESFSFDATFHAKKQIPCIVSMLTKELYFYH

[27] = target: T7, Caspase-7 (Homo sapiens, UniProt P55210); assay: potency of procaspase-7 enzyme activation – biochemical, absorbance, human, dual procaspase-3/-7 activator project, dose response (AID 504330)
T7 sequence (P55210 whole entry): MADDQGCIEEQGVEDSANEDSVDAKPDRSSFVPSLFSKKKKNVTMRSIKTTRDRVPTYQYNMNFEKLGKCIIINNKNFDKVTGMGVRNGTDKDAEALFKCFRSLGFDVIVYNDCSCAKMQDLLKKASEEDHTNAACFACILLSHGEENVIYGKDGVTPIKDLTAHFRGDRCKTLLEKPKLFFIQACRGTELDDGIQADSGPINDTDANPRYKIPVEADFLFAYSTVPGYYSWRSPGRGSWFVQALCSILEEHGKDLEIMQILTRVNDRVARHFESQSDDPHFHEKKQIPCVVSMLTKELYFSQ

T2 sequence (Q00975 whole entry): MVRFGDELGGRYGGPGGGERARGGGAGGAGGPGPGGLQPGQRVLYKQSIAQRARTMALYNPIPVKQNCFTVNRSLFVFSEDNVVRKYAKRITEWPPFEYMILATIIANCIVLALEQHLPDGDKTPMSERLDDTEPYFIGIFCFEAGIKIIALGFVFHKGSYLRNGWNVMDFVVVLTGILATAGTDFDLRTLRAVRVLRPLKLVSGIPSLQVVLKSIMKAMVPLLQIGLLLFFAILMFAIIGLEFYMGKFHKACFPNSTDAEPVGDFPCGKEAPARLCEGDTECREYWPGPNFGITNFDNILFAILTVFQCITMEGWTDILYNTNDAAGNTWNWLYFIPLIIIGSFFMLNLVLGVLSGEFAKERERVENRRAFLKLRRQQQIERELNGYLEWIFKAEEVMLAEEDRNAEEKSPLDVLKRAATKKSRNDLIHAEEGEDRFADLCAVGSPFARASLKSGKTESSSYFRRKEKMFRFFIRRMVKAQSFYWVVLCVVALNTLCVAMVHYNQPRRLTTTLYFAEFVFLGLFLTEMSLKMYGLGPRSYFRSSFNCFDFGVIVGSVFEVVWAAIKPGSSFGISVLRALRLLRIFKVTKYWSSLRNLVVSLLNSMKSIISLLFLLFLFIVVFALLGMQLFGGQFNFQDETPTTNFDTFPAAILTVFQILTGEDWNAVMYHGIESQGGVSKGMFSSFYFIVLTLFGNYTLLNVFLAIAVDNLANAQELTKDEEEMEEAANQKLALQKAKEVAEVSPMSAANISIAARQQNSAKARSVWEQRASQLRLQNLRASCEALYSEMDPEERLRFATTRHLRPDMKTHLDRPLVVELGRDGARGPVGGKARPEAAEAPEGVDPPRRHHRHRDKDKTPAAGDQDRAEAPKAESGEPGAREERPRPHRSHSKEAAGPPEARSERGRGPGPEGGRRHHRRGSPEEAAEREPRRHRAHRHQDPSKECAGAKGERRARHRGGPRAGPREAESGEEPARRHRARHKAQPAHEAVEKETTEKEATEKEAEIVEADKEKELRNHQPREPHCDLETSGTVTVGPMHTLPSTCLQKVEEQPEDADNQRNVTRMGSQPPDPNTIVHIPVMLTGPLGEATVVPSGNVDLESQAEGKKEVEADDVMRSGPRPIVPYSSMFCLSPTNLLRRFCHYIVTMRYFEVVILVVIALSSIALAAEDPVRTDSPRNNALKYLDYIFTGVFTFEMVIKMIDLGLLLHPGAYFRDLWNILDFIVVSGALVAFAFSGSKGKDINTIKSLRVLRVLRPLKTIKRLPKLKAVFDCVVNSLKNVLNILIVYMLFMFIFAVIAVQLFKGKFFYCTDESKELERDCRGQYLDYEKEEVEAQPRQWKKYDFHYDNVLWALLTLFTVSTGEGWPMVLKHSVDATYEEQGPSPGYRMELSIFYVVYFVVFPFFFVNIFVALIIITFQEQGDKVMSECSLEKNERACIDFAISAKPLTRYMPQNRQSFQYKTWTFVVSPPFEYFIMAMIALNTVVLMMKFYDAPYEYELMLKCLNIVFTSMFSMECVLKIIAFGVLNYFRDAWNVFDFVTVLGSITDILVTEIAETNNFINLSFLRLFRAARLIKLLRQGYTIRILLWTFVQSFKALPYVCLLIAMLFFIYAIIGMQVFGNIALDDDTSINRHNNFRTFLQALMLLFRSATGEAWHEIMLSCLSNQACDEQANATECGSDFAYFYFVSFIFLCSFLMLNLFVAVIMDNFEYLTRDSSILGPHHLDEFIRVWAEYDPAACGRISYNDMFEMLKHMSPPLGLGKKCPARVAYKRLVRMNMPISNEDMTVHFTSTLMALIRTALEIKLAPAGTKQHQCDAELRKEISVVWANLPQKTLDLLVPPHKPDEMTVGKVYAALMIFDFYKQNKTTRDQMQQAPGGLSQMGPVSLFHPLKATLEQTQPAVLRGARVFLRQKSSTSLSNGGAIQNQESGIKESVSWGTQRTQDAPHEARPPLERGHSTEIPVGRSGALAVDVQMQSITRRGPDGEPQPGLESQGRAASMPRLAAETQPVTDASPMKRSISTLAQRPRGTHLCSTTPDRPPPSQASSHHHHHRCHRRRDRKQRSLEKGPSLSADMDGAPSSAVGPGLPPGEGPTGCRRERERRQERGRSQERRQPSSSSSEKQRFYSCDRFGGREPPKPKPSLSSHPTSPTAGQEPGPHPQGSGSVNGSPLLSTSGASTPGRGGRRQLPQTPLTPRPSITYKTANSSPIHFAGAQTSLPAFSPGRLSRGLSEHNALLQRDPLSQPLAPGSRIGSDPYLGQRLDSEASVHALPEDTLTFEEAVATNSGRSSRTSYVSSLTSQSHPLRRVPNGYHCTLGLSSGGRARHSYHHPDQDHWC
T2 sequence (Q02410 whole entry): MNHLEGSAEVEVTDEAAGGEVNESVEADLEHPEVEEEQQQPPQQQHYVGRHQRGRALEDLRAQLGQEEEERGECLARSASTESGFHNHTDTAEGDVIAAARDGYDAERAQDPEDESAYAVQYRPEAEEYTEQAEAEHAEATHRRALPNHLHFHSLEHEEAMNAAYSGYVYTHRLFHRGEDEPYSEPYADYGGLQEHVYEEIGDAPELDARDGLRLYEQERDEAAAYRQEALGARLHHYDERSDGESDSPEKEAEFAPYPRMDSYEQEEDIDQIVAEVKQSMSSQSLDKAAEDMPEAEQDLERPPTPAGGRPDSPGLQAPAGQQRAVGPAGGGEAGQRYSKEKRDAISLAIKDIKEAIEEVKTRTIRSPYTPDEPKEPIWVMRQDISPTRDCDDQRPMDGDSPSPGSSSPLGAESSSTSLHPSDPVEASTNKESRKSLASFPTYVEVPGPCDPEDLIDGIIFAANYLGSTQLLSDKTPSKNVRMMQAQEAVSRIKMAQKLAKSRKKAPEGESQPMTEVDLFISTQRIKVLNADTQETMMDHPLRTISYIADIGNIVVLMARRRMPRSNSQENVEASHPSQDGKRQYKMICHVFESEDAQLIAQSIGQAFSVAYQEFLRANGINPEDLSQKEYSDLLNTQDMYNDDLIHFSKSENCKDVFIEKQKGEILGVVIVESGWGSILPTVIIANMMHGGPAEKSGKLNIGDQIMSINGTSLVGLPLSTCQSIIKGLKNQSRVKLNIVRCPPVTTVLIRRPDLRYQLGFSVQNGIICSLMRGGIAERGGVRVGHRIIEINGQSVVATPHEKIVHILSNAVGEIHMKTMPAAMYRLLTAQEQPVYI
Chain of DNA dC->dU-editing enzyme APOBEC-3G (Q9HC16 whole entry): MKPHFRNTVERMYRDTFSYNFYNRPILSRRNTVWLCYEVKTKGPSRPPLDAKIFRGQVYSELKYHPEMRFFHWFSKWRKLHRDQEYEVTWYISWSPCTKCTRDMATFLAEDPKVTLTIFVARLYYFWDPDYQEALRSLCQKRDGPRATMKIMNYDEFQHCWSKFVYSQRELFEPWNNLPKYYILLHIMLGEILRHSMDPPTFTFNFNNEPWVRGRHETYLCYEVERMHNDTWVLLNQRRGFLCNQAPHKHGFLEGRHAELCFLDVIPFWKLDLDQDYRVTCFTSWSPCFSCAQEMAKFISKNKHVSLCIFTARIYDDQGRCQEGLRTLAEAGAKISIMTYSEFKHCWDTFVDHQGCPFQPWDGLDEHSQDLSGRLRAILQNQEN
Chain of DNA dC->dU-editing enzyme APOBEC-3A (P31941 whole entry): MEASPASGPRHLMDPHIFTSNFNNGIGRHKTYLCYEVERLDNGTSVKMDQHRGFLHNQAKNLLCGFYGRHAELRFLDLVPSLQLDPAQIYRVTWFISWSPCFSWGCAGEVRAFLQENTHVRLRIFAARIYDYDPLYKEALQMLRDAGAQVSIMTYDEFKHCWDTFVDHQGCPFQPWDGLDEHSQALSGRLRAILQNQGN
Chain of Cytochrome P450 2D6 (P10635 whole entry): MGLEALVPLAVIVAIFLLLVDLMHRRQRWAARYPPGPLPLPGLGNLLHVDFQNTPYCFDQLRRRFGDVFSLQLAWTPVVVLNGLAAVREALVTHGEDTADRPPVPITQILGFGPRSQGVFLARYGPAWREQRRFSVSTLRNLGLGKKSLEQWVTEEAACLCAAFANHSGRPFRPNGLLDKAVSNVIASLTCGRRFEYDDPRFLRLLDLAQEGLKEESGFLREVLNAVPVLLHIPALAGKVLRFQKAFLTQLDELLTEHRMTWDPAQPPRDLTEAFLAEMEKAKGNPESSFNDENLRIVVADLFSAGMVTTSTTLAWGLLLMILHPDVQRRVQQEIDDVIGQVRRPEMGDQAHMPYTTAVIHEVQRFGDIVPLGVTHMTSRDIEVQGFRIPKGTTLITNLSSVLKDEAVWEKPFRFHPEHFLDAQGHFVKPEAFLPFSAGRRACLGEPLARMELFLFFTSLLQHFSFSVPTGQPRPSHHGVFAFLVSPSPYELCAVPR
T5 sequence (P41145 whole entry): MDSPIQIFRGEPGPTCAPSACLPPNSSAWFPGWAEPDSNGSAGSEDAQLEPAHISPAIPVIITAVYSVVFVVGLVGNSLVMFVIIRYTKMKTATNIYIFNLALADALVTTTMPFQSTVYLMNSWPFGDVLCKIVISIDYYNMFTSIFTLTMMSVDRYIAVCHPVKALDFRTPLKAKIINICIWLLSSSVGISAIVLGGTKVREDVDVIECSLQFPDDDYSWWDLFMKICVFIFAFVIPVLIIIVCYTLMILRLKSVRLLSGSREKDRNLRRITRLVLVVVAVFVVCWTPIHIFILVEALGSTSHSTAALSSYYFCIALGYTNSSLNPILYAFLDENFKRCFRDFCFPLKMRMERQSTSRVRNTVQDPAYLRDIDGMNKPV
Chain of Glyceraldehyde-3-phosphate dehydrogenase (P04406 whole entry): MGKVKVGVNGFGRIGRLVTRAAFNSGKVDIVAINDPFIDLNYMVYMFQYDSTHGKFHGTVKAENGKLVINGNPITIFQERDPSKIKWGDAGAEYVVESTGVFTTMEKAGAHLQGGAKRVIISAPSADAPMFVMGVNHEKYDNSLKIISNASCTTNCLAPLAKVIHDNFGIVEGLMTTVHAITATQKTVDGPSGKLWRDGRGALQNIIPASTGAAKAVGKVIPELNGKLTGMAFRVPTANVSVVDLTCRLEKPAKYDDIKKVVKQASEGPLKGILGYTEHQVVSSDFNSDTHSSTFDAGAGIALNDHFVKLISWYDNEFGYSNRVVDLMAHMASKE

COC(=O)C/C=C1\c2ccccc2C(OC)C1C (stereo unspecified)
AC50 [1]: 0.0794 µM (inconclusive)

CC1(C)CC(=O)c2c(/C=C/c3ccccc3)n[nH]c2C1
IC50 [2]: > 100 µM (not active) | IC50 [3]: > 100 µM (inactive) | IC50 [4]: > 100 µM (inactive)

CCc1ccc(N2CSC3=C(C#N)C(c4cccs4)CC(=O)N3C2)cc1 (stereo unspecified)
EC50 [5]: 50.7 µM (not active) | EC50 [6]: 63.3 µM (not active) | EC50 [7]: 77.8 µM (not active) | IC50 [8]: 13.1 µM (active) | IC50 [9]: > 50 µM (inactive) | IC50 [10]: 8.18 µM (active)

Cc1ccn2c(-c3csc(NCc4ccco4)n3)c(C)nc2c1
IC50 [8]: 8.87 µM (active) | IC50 [9]: > 50 µM (inactive) | EC50 [11]: 1.5 µM (active)

COc1nc(-c2ccc(Cl)cc2)ccc1-c1noc(-c2ccco2)n1
EC50 [12]: 10.9 µM (active)

O=C(O)CCn1ccnc1-c1ccccc1
EC50 [12]: 12.5 µM (not active)

Cc1cccc(N2CCN(CCNC(=O)Cn3c(=O)c4cccn4c4cccnc43)CC2)c1C
IC50 [13]: 6.33 µM (active) | IC50 [14]: > 32 µM (inactive) | IC50 [15]: > 20 µM (inactive) | IC50 [16]: > 32 µM (inactive)

Cc1cc(-c2nnc(S)n2/N=C/c2cccc([N+](=O)[O-])c2)[nH]n1
IC50 [17]: > 100 µM (inactive) | IC50 [10]: 3.68 µM (active)

O=C(NCC1COc2ccccc2O1)C1CCCN(S(=O)(=O)c2c[nH]cn2)C1 (stereo unspecified)
CC50 [18]: > 99 µM (not active)

Cc1ccc(/C=N/n2c(S)nnc2-c2ccco2)cc1
IC50 [19]: 33.6 µM (active) | IC50 [17]: > 100 µM (inactive) | IC50 [10]: 3.02 µM (active)

COc1ccc(/C=C/C(=O)NCC(=O)N/N=C/c2cc(Br)ccc2OCc2ccccc2)cc1
CC50 [20]: > 40 µM (active)

CCn1ncc(/C=N/NC(=O)c2ccc3c(c2)c(C)c(C)n3Cc2ccccc2)c1C
IC50 [3]: > 100 µM (inactive)

CC(C)c1ccc(N2C(=O)NC(=O)/C(=C\C=C\c3ccco3)C2=O)cc1
CC50 [21]: 23.8 µM (active) | AC50 [22]: 1.23 µM (active) | EC50 [23]: 19 µM (active) | CC50 [24]: 37.8 µM (active)

CC1Cc2c(-c3ccccc3)nc3c(c2CO1)CN(CCOc1ccccc1)CC3 (stereo unspecified)
AC50 [1]: 5.01 µM (inconclusive) | AC50 [25]: 3.98 µM (inconclusive)

Cc1ccc(/C=C2/SC(=S)N(CC(=O)Nc3ncc(Cc4ccc(C)cc4)s3)C2=O)cc1
CC50 [20]: 37.9 µM (active)

C=CCNC1=C(Cl)C(=O)N(c2cccc(Cl)c2Cl)C1=O
EC50 [26]: > 85.3 µM (inactive) | EC50 [27]: > 85.3 µM (inactive)

— ChEMBL document CHEMBL1201862, “PubChem BioAssay data set” (2004)
